Reference: patent US20180104332A1, “INSULIN-LIKE GROWTH FACTOR INHIBITOR AND CHEMOTHERAPEUTIC AGENT FOR USE IN CANCER THERAPY” (The University of Liverpool, priority 2015, published 2018)

B1: BI 836845: IGF blocking antibody, in phase 1 clinical trials for various solid cancers (antibody, chains of the INN, looked up, V domains shown)
VH: QVELVESGGGLVQPGGSLRLSCAASGFTFTSYWMSWVRQAPGKGLELVSSITSYGSFTYYADSVKGRFTISRDNSKNTLYLQMNSLRAEDTAVYYCARNMYTHFDSWGQGTLVTVSS
VL: DIVLTQPPSVSGAPGQRVTISCSGSSSNIGSNSVSWYQQLPGTAPKLLIYDNSKRPSGVPDRFSGSKSGTSASLAITGLQSEDEADYYCQSRDTYGYYWVFGGGTKLTVL

Legend:
[1] = test system: MDA-MB-231 breast cancer cells; experiment: Cell death by flow cytometry under nab-paclitaxel with MCM or recombinant IGF; type: cell-based, human; settings: recombinant IGF 100 ng/ml; 500 nM nab-paclitaxel, 48 hours; FIG. 33
Procedure: FIG. 33 illustrates human breast MDA-MB-231 cancer cells cultured in the presence or absence of MCM or recombinant IGF and treated with 500 nM nab-paclitaxel for 48 hours. Percentage of cell death was quantified by flow cytometry. Error bars represent s.d. (n=3); *two tailed p value≤0.05, **two tailed p value≤0.01 using a student's t-test.
MDA-MB-231 cells were pretreated for 3 hours with human macrophage derived factors (MDF) or recombinant IGF (100 ng/ml) followed by 500 nM of nab-paclitaxel.

[2] = test system: Suit-2 and KPC-derived pancreatic cancer cells; experiment: Cell death by flow cytometry (annexinV/PI) under chemotherapy with MCM, IGF blocking antibody or recombinant IGF; type: cell-based; settings: recombinant IGF 100 ng/ml, 24 hours, FIGS. 30-32
Procedure: FIG. 29 illustrates quantification of cell death in Suit-2 cells treated with gemcitabine, MCM and IGF blocking antibody for 24 hours. Error bars represent s.d. (n=3); **two tailed p value≤0.01, *two tailed p value≤0.05 using a student's t-test.
FIG. 30 illustrates primary mouse KPC-derived pancreatic cancer cells were untreated or treated with gemcitabine, MCM, IGF blocking antibody or recombinant IGF for 24 hours and percentage of cell death was quantified by flow cytometry. Error bars represent s.d. (n=3); **two tailed p value≤0.01 using a student's t-test.
FIG. 32 illustrates KPC-derived cells which were cultured in the presence or absence of MCM or recombinant IGF and treated with 100 or 1000 nM nab-paclitaxel for 24 hours. Percentage of cell death was quantified by flow cytometry. Error bars represent s.d. (n=3); *two tailed p value≤0.05 using a student's t-test.
Suit-2 and KPC cells were cultured in serum free or DMEM with 2% FBS respectively, pretreated for 3 h with human or mouse macrophage conditioned media respectively, and IGF-1 IgG blocking antibody (abcam 9572) at 10 μg/ml or IgG antibody as control, followed by Gemcitabine at 200 nM. Cells were harvested after 24 hours, and subjected to flow cytometry. […] Apoptosis was evaluated by flow cytometry (FACS Calibur, Becton Dickinson). […]

Insulin/IGF receptor = experiment: Immunoblotting of Insulin/IGF receptor signalling in cancer cells; type: cell-based, human, mouse; settings: Suit-2, KPC-derived and Py230 cells, 3 hours; FIG. 27
Procedure: FIG. 27 illustrates Immunoblot analysis of phospho-lnsulin/IGF receptor, phospho-Insulin receptor, Insulin receptor, phospho- IGF receptor 1, IGFR1 and tubulin, in human pancreatic cancer Suit-2 cells, murine primary KPC pancreatic cancer and
Py230 breast cancer derived cells, serum starved, exposed to MCM or exposed to recombinant IGF for 3 hours.
FIG. 28 illustrates that blockade of IGF impairs macrophage-mediated activation of Insulin/IGF receptor and downstream signalling molecules IRS1, IRS2 and AKT in cancer cells by Immunoblotting analysis of Suit-2 cells untreated or treated with MCM or MCM+IGF blocking antibody for 3 hours.
Cells were serum starved or treated with macrophage conditioned media for 30 min, 2 h or 3 h, harvested and lysed in RIPA buffer (150 mM NaCl, 10 mM Tris-HCl pH 7.2, 0.1% SDS, 1% Triton X-100, 5 mM EDTA) supplemented with a complete protease inhibitor mixture (SIGMA), a phosphatase inhibitor cocktail (Invitrogen), 1 mM PMSF and 0.2 mM Na3VO4. Cell lysates (300 μg) were analyzed with the Human Phospho-RTK Array Kit (R&D Systems). Protein samples were resuspended in 4xLaemmli sample buffer, and immunoblotting was performed on nitrocellulose membranes blocked in 5% BSA or milk (depending on the antibody) in Tris-buffered saline Tween-20 (TBST). […]

[3] = test system: Suit-2 and KPC derived pancreatic cancer cells; experiment: Cell death and cell cycle analysis of cancer cells treated with the agents alone; type: cell-based, human, mouse; settings: no chemotherapy; antibody 10 μg/ml, recombinant IGF 100 ng/ml; FIGS. 52 and 53
Procedure: FIG. 52 illustrates quantification of cell death in Suit-2 cells exposed to 200 nM gemcitabine, MCM and/or IGF blocking antibody (10 μg/ml). Error bars represent s.d. (n=3); **two tailed p value≤0.01 using a student's t-test.
FIG. 53 illustrates cell cycle analysis of primary mouse KPC derived pancreatic cancer cells exposed to MCM, IGF blocking antibody ([…]) or recombinant IGF (100 ng/ml).
KPC derived pancreatic cancer cells were treated with isogenic mouse MDFs, IGF1/2 blocking antibody (abcam 9572) at 10 μg/ml or recombinant IGF (Peprotech 100-11) at 100 ng/ml. Cells were harvested, fixed with methanol, treated for 45 min with 10 μg/ml of RNase, resuspended in PBS containing 10 μg/ml of propidium iodide and subjected to flow cytometry.

pancreatic cancer = settings: patients diagnosed with pancreatic cancer; cited from earlier work
[4] = test system: KPC-derived orthotopic pancreatic tumors; experiment: Syngeneic orthotopic pancreatic cancer model, gemcitabine and IGF blocking antibody BI 836845; type: in vivo, mouse; settings: for effect on tumor growth (tumor weights): i.p. twice a week for two weeks, gemcitabine 100 mg/Kg, BI 836845 100 mg/Kg, vs control IgG, FIG. 47b
Procedure: FIG. 47 illustrates a combination with gemcitabine with IGF blockade inhibites tumor growth in the syngeneic orthotopic pancreatic cancer model: (a) KPC^luc/zsGreen(zsGreen)-derived pancreatic tumor cells were orthotopically implanted into the pancreas of syngeneic recipient mice, and mice were treated, starting at day 7 after tumor implantation, twice a week i.p., with either control IgG antibody, gemcitabine (100 mg/Kg), IGF blocking antibody BI 836845 (100 mg/Kg) or a combination of gemcitabine with IGF blocking antibody. (b) Representative images of tumors and tumor weights are shown (n=6 mice per group). (c) Pancreatic tumors were digested and percentage of intra- tumoral F4/80+ macrophages, Ly6C+/Ly6G− inflammatory monoctyes, Gr1+/CD11b+ neutrophils and myeloid derived suppressor cells (MDSCs) and CD8+ cytotoxic T cells (CTCs), among CD45+ immune cells, were quantified by flow cytometry (n=3). (d) Percentage of intra-tumoral CD206− M1-like macrophages and CD206+M2-like macrophages, among F4/80+ macrophages, were quantified by flow cytometry (n=3). […] (f) Quantification of cleaved caspase-3 positive apoptotic cells in PDA tumors treated with IgG (control), gemcitabine, IGF blocking antibody BI 836845 or gemcitabine+BI 836845 (n=6 fields counted).
All animal experiments were performed in accordance with current UK legislation under an approved project licence (reference number: 403725). […] Tumor tissues were analyzed by immunohistochemical and immunofluorescent staining for phospho-lnsulin/IGFR expression, EpCAM expression, macrophage infiltration, fibroblast activation and apoptosis using the following antibodies: phospho-insulin/IGF receptor antibody (R&D), EpCAM (BD Pharmingen), CD68 antibody (DAKO), CD206 (abcam), αSMA (abcam) and cleaved caspase 3 (Cell signaling). Expression of IGF-1, IGF-2, Arginase, IL-10, IFNγ and IL-12 in intra-tumoral isolated macrophages were determined by qPCR. […]

Molecule	resistance of breast cancer cells to nab-paclitaxel [1]	resistance of pancreatic cancer cells to gemcitabine and nab-paclitaxel [2]	Insulin/IGFR signaling in pancreatic and breast cancer cells (Insulin/IGF receptor)	survival or proliferation of cancer cells, agent alone [3]	patients treated with gemcitabine who die within 5 years of commencing treatment (pancreatic cancer) [%]	effect on tumor growth (tumor weights) [4]	phospho-Insulin/IGFR expression in tumors ([4]; immunohistochemical analysis, FIG. 47e)
recombinant IGF: recombinant IGF (Peprotech 100-11) used at 100 ng/ml	sufficient to mediate resistance	sufficient to mediate resistance	activates Insulin/IGFR signaling	did not alter the survival or proliferation	–	–	–
Nc1ccn([C@@H]2O[C@H](CO)[C@@H](O)C2(F)F)c(=O)n1 [gemcitabine]	–	–	–	–	95	no effect	–
B1	–	–	–	–	–	modest effect	decreased
